From publication PMC7029851, “Antibacterial activity of novel dual bacterial DNA type II topoisomerase inhibitors” (PLoS ONE, 2020)
Like-named read-outs stand apart in the source and are kept apart here.

What was measured:
E. coli Topoisomerase IV = biological target: T1, E. coli Topoisomerase IV (Escherichia coli, UniProt P0AFI2); assay: E. coli topoisomerase IV decatenation gel assay; assay type: biochemical
T1 construct: purchased Inspiralis (Norwich, UK)
Experimental: (§1) S. aureus and E. coli DNA gyrase supercoiling and topo IV decatenation assay kits, as well as human topoisomerase II decatenation assay kits, were provided by Inspiralis (Norwich, UK). Assays were performed according to the manufacturer’s instructions. The compounds were serially diluted (1:3 dilutions starting from a 300 μM final concentration) and assayed in a reaction mixture to obtain concentration-response curves in two different replicate experiments. The final concentration of DMSO in the assays was 1% (v/v). The reactions were terminated by the addition of 30 μl chloroform/isoamyl alcohol (26:1) and 30 μl Stop Dye (40% sucrose, 100 mM Tris HCl pH 7.5, 1 mM EDTA, 0.5 μg/ml bromophenol blue), after which the samples were loaded onto a 1.0% TAE ([…]) gel that was then run at 80 V for 2 hours. DNA bands were visualized by ethidium bromide staining the gel for 10 minutes, which was then destained for 10 minutes in water and analysed using gel documentation equipment (Syngene, Cambridge, UK). The DNA in each band was quantitated using Syngene Gene Tools software. Raw gel data (fluorescent band volumes) were converted by the software to percentages of the control (the fully supercoiled or decatenated DNA band). […] The global curve fit non-linear regression tool was used to calculate the IC50 values. The results are expressed as the average values obtained after calculating the IC50 from each replicate run.

S. aureus ATCC 29213 = assay: MIC, broth microdilution; assay type: cell-based, Staphylococcus aureus; conditions: for MIC: Staphylococcus aureus
Experimental: (§2) MICs were determined by the broth microdilution method (the agar dilution method was used only for N. gonorrhoeae) according to CLSI guidelines.

S. aureus DNA gyrase = biological target: T2, S. aureus DNA gyrase (Staphylococcus aureus, UniProt P20831); assay: S. aureus DNA gyrase supercoiling gel assay; assay type: biochemical
T2 construct: purchased Inspiralis (Norwich, UK)
T2 sequence (P20831 whole entry): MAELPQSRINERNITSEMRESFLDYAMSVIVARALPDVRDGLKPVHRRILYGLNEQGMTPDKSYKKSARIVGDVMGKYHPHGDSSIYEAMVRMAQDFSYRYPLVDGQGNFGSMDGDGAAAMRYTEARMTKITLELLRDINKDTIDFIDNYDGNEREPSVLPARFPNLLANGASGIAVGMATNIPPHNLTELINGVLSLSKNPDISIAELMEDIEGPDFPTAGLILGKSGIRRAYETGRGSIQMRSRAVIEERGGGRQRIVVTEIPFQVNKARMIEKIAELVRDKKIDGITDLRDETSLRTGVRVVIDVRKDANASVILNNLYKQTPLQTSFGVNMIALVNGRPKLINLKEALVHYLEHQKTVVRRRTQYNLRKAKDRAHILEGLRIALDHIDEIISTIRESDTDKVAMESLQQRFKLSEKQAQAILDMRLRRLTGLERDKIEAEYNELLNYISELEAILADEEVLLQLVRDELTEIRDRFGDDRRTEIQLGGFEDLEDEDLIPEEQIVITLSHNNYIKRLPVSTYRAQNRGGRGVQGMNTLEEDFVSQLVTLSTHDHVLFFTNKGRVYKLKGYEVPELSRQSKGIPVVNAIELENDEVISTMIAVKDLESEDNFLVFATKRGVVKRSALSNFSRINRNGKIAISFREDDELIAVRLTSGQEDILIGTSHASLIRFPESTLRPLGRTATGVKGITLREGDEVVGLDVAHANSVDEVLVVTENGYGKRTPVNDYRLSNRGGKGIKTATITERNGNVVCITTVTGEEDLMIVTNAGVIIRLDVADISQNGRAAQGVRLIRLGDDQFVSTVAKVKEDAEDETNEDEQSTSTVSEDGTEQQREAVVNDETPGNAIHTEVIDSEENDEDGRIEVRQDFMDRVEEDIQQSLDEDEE
T2 sequence (P0A0K8 whole entry partner): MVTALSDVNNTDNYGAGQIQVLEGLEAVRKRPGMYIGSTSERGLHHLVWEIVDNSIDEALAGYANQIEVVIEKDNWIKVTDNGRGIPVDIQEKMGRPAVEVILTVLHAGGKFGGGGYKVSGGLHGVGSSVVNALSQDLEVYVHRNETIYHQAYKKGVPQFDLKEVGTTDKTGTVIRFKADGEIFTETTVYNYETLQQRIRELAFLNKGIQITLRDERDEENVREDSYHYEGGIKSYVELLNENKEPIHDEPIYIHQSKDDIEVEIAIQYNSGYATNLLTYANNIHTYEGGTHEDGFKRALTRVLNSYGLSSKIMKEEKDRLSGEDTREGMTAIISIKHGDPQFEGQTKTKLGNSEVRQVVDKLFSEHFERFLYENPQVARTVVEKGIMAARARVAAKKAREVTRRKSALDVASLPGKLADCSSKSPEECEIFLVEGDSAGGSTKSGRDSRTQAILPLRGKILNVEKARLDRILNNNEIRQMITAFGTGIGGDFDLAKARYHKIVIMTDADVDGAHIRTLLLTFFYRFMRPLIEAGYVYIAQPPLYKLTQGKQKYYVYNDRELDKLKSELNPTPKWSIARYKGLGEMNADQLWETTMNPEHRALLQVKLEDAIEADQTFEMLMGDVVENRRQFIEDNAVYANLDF
Experimental: as §1

[1] = biological target: T3, S. aureus Topoisomerase IV (Staphylococcus aureus, UniProt P0C1U9); assay: S. aureus topoisomerase IV decatenation gel assay; assay type: biochemical
T3 construct: purchased Inspiralis (Norwich, UK)
Experimental: as §1

Human Topoisomerase II = biological target: T4, Human Topoisomerase II (Homo sapiens, UniProt P11388); assay: Human topoisomerase II decatenation gel assay; assay type: biochemical
T4 construct: purchased Inspiralis (Norwich, UK)
Experimental: as §1

E. coli DNA gyrase = biological target: T5, E. coli DNA gyrase (Escherichia coli, UniProt P0AES4); assay: E. coli DNA gyrase supercoiling gel assay; assay type: biochemical
T5 construct: purchased Inspiralis (Norwich, UK)
T5 sequence (P0AES4 whole entry): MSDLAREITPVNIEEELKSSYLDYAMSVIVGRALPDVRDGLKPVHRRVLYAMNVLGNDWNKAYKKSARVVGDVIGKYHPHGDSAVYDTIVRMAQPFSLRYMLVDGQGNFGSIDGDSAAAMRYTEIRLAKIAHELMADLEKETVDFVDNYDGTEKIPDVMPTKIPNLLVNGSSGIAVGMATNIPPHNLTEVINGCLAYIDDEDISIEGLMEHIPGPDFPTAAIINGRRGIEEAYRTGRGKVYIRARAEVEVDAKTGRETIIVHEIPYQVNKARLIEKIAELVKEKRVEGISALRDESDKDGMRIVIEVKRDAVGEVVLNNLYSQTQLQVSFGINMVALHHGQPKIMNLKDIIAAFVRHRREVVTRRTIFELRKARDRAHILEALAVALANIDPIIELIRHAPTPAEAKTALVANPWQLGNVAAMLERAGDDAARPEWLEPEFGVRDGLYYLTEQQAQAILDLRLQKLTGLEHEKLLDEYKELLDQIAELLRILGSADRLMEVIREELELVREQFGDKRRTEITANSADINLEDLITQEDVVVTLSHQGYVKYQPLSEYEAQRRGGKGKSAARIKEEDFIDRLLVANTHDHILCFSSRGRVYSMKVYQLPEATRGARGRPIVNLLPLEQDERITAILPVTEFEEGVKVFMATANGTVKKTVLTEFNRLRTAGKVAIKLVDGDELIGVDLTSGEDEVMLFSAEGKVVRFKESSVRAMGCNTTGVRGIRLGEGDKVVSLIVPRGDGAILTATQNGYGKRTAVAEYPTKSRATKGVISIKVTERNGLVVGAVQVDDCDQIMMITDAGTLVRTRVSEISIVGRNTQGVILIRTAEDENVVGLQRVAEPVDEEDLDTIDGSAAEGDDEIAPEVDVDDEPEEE
Experimental: as §1

[2] = system: E. faecium clinical isolates (n = 12) vanA (6)/vanB (6); assay: MIC, multidrug-resistant clinical isolates; assay type: cell-based; conditions: Enterococcus faecium; for MIC: read-out: MIC range
Experimental: (§3) The bacterial reference strains used in this study were purchased from ATCC (American Type Culture Collection) via LGC Standards (Middlesex, UK). […] Clinical MDR isolates were provided by Aptuit, the IHMA Europa Sàrl repository (Epalinges, Switzerland) and the Statens Serum Institute (Copenhagen, Denmark).
as §2
(§4) The results obtained using clinical isolates are reported as MIC50 and MIC90 values.

[3] = system: E. faecalis clinical isolates (n = 12) vanA (6)/vanB (6); assay: MIC, multidrug-resistant clinical isolates; assay type: cell-based; conditions: Enterococcus faecalis; for MIC: read-out: MIC range
Experimental: as §3, §2, §4

[4] = system: N. gonorrhoeae ATCC 19424; assay: MIC, agar dilution; assay type: cell-based; conditions: Neisseria gonorrhoeae, ATCC19424; N. gonorrhoeae ATCC 19424, ciprofloxacin-susceptible
Experimental: as §2

N. gonorrhoeae WHO K = assay: MIC, agar dilution; assay type: cell-based; conditions: Neisseria gonorrhoeae, ciprofloxacin-resistant
Experimental: as §2

N. gonorrhoeae WHO N = assay: MIC, agar dilution; assay type: cell-based; conditions: Neisseria gonorrhoeae, ciprofloxacin-resistant
Experimental: as §2

N. gonorrhoeae WHO L = assay: MIC, agar dilution; assay type: cell-based; conditions: Neisseria gonorrhoeae, ciprofloxacin-resistant
Experimental: as §2

[5] = system: N. gonorrhoeae ATCC 49226; assay: MIC, agar dilution; assay type: cell-based; conditions: Neisseria gonorrhoeae, ATCC49226; N. gonorrhoeae ATCC 49226, ciprofloxacin-susceptible
Experimental: as §2

[6] = system: N. gonorrhoeae clinical isolates (n = 38); assay: microbe, parasite or virus in culture; assay type: cell-based, Neisseria gonorrhoeae; conditions: for MIC50 / MIC90: Neisseria gonorrhoeae
Experimental: as §3, §2, §4

S. pneumoniae ATCC 49619 = assay: MIC, broth microdilution; assay type: cell-based; conditions: Streptococcus pneumoniae, ATCC49619; S. pneumoniae ATCC 49619, ciprofloxacin-susceptible
Experimental: as §2

S. aureus BAA-1720 = assay: MIC, broth microdilution; assay type: cell-based; conditions: Staphylococcus aureus, BAA1720; S. aureus BAA-1720, ciprofloxacin-resistant
Experimental: as §2

P. aeruginosa ATCC 27853 = assay: MIC, broth microdilution; assay type: cell-based; conditions: Pseudomonas aeruginosa, ATCC27853; P. aeruginosa ATCC 27853, ciprofloxacin-susceptible
Experimental: as §2

E. coli ATCC 25922 = assay: MIC, broth microdilution; assay type: cell-based; conditions: Escherichia coli, ATCC25922; E. coli ATCC 25922, ciprofloxacin-susceptible
Experimental: as §2

H. influenzae ATCC 49766 = assay: MIC, broth microdilution; assay type: cell-based; conditions: Haemophilus influenzae, ATCC49766; H. influenzae ATCC 49766, ciprofloxacin-susceptible
Experimental: as §2

[7] = system: K. pneumoniae ATCC 700603; assay: MIC, broth microdilution; assay type: cell-based; conditions: Klebsiella pneumoniae, ATCC700603; K. pneumoniae ATCC 700603, ciprofloxacin-susceptible
Experimental: as §2

E. faecalis ATCC 29212 = assay: MIC, broth microdilution; assay type: cell-based; conditions: Enterococcus faecalis, ATCC29212; E. faecalis ATCC 29212, ciprofloxacin-susceptible
Experimental: as §2

E. coli TolC- mutant = assay: microbe, parasite or virus in culture; assay type: cell-based; conditions: Escherichia coli
Experimental: as §3, §2

[8] = system: H. influenzae AcrA- mutant; assay: microbe, parasite or virus in culture; assay type: cell-based; conditions: Haemophilus influenzae
Experimental: as §3, §2

[9] = IC50 E. coli Topoisomerase IV decatenation (average), average of two replicate experiments
[10] = IC50 E. coli Topoisomerase IV decatenation, Assay 1, replicate Assay 1
[11] = IC50 E. coli Topoisomerase IV decatenation, Assay 2, replicate Assay 2
[12] = ATCC29213, S. aureus ATCC 29213, ciprofloxacin-susceptible
[13] = average of two replicate experiments, read-out: IC50 S. aureus Gyrase Supercoiling (average)
[14] = replicate Assay 1, read-out: IC50 S.aureus gyrase Supercoiling, Assay 1
[15] = replicate Assay 2, read-out: IC50 S.aureus gyrase Supercoiling, Assay 2
[16] = average of two replicate experiments, read-out: IC50 S. aureus Topoisomerase IV decatenation (average)
[17] = replicate Assay 1, read-out: IC50 S. aureus Topoisomerase IV decatenation, Assay 1
[18] = replicate Assay 2, read-out: IC50 S. aureus Topoisomerase IV decatenation, Assay 2
[19] = average of two replicate experiments, read-out: IC50 Human Topoisomerase II decatenation (average)
[20] = replicate Assay 1, read-out: IC50 Human Topoisomerase II (TopoII) decatenation, Assay 1
[21] = replicate Assay 2, read-out: IC50 Human Topoisomerase II (TopoII) decatenation, Assay 2
[22] = IC50 E. coli Gyrase Supercoiling (average), average of two replicate experiments
[23] = IC50 E. coli gyrase Supercoiling, Assay 1, replicate Assay 1
[24] = IC50 E. coli gyrase Supercoiling, Assay 2, replicate Assay 2

T1 sequence (P20083 whole entry): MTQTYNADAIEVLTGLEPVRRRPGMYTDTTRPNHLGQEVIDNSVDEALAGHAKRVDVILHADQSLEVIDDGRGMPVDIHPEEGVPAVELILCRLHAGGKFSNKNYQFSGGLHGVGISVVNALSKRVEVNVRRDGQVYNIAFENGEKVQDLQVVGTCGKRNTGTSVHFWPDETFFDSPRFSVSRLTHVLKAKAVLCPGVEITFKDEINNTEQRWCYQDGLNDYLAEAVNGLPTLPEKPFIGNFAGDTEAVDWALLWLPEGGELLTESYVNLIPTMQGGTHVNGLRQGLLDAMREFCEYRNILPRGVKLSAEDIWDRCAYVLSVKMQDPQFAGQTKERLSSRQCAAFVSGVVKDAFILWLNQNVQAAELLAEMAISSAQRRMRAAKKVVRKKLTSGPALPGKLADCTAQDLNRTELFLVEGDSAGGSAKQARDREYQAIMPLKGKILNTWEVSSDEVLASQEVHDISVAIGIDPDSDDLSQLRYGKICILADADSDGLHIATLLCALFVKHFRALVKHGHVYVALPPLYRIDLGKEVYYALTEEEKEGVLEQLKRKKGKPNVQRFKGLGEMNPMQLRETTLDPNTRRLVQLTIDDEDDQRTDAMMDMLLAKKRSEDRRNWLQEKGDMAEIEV
T1 sequence (P0AFI2 whole entry): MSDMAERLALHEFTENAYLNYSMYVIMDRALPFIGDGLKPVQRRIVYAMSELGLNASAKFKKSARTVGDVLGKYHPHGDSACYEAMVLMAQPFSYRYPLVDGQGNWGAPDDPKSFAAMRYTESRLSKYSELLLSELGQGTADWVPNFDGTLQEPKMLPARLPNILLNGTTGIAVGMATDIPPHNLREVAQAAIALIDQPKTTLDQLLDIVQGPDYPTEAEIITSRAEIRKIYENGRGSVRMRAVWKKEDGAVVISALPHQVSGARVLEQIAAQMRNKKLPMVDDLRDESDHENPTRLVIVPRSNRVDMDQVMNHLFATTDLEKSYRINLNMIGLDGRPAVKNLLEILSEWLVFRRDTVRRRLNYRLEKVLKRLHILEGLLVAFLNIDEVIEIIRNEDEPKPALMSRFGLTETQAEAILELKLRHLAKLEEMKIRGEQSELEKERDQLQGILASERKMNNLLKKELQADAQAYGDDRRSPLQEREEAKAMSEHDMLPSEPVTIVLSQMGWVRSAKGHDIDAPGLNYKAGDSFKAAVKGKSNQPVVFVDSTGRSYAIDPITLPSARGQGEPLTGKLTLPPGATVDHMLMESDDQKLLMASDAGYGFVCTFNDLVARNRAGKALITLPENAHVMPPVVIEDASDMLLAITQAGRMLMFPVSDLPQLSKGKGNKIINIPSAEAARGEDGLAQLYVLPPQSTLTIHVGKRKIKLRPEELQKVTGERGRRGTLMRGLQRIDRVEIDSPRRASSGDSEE

Compound Cl.O=c1oc2ccc(F)cc2c2[nH]c(CN[C@H]3CC[C@H](n4c(=O)ccc5ncc(F)cc54)CC3)cc12 [Compound 3, 8-fluoro-2-({[trans-4-(7-fluoro-2-oxo-1,5-naphthyridin-1(2H)-yl)cyclohexyl]amino}methyl)[1]benzopyrano[4,3-b]pyrrol-4(1H)-one hydrochloride] has an IC50 (E. coli Topoisomerase IV; [9]) of less than 100 nM, an IC50 (E. coli Topoisomerase IV; [10]) of less than 100 nM and an IC50 (E. coli Topoisomerase IV; [11]) of less than 100 nM. The IC50 (E. coli Topoisomerase IV; read-out: IC50 E. coli Topoisomerase IV decatenation (average), average of two replicate experiments) was less than 100 nM, the MIC (S. aureus ATCC 29213; [12]) was 0.25 µg/mL and the IC50 (S. aureus DNA gyrase; [13]) was less than 100 nM. The IC50 (S. aureus DNA gyrase; [14]) was less than 100 nM, the IC50 (S. aureus DNA gyrase; [15]) was less than 100 nM and the IC50 [1, 16] was less than 100 nM. The IC50 [1, 17] was less than 100 nM, the IC50 [1, 18] was less than 100 nM and the IC50 (Human Topoisomerase II; [19]) was 56000 nM. It also gave an IC50 (Human Topoisomerase II; [20]) of 46000 nM, an IC50 (Human Topoisomerase II; [21]) of 66000 nM and an IC50 (E. coli DNA gyrase; [22]) of less than 100 nM. It also gave an IC50 (E. coli DNA gyrase; [23]) of less than 100 nM, an IC50 (E. coli DNA gyrase; [24]) of less than 100 nM and an IC50 (E. coli DNA gyrase; read-out: IC50 E. coli Gyrase Supercoiling (average), average of two replicate experiments) of less than 100 nM. The MIC50 [2] was 0.12 µg/mL, the MIC90 [2] was 0.25 µg/mL and the MIC [2] was 0.06 to 2 µg/mL. For the same compound, the MIC50 [3] was 0.12 µg/mL, the MIC90 [3] was 0.12 µg/mL and the MIC [3] was 0.06 to 0.12 µg/mL. The MIC [4] was no more than 0.06 µg/mL, the MIC (N. gonorrhoeae WHO K) was 0.016 µg/mL and the MIC (N. gonorrhoeae WHO N) was 0.016 µg/mL. The MIC (N. gonorrhoeae WHO L) was 0.016 µg/mL, the MIC [5] was 0.016 µg/mL and the MIC range [6] was 0.004 to 0.03 µg/mL. The MIC50 [6] was 0.016 µg/mL, the MIC90 [6] was 0.03 µg/mL and the MIC (S. pneumoniae ATCC 49619) was 0.25 µg/mL. It also gave an MIC (S. aureus BAA-1720) of 0.12 µg/mL, an MIC (P. aeruginosa ATCC 27853) of 4 µg/mL and an MIC (E. coli ATCC 25922) of 0.5 µg/mL. The MIC (H. influenzae ATCC 49766) was 0.12 µg/mL, the MIC [7] was 2 µg/mL and the MIC (E. faecalis ATCC 29212) was 0.12 µg/mL. The MIC (E. coli TolC- mutant) was no more than 0.016 µg/mL and the MIC [8] was 0.06 µg/mL.
Work on Cl.N#Cc1ccc2ccc(=O)n([C@H]3CC[C@H](NCc4cc5c(=O)oc6ccc(F)cc6c5[nH]4)CC3)c2c1 [Compound 2, 1-(trans-4-{[(8-fluoro-4-oxo-1,4-dihydro[1]benzopyrano[4,3-b]pyrrol-2-yl)methyl]amino}cyclohexyl)-2-oxo-1,2-dihydroquinoline-7-carbonitrile hydrochloride] yielded an IC50 (E. coli Topoisomerase IV; [9]) of 130 nM, an IC50 (E. coli Topoisomerase IV; [10]) of 100 nM and an IC50 (E. coli Topoisomerase IV; [11]) of 160 nM. The “MIC fold lower than that of ciprofloxacin” value (S. aureus ATCC 29213; S. aureus ATCC 29213) was “approximately 10 fold”, the MIC (S. aureus ATCC 29213; [12]) was 0.03 µg/mL and the MIC (S. aureus ATCC 29213; ATCC29213, S. aureus ATCC29213, ref strain, S4 File) was no more than 0.06 µg/mL. It also gave an IC50 (S. aureus DNA gyrase; [13]) of less than 100 nM, an IC50 (S. aureus DNA gyrase; [14]) of less than 100 nM and an IC50 (S. aureus DNA gyrase; [15]) of less than 100 nM. For the same compound, the IC50 [1, 16] was less than 100 nM, the IC50 [1, 17] was less than 100 nM and the IC50 [1, 18] was less than 100 nM. The IC50 (Human Topoisomerase II; [19]) was 6000 nM, the IC50 (Human Topoisomerase II; [20]) was 6000 nM and the IC50 (Human Topoisomerase II; [21]) was 7000 nM. The IC50 (E. coli DNA gyrase; [22]) was 50 nM, the IC50 (E. coli DNA gyrase; [23]) was 40 nM and the IC50 (E. coli DNA gyrase; [24]) was 50 nM. It also gave an MIC50 [2] of 0.12 µg/mL, an MIC90 [2] of 0.25 µg/mL and an MIC [2] of 0.06 to 1 µg/mL. The MIC50 [3] was 0.12 µg/mL, the MIC90 [3] was 0.12 µg/mL and the MIC [3] was 0.06 to 0.12 µg/mL. The MIC [4] was no more than 0.06 µg/mL, the MIC (N. gonorrhoeae WHO K) was 0.12 µg/mL and the MIC (N. gonorrhoeae WHO N) was 0.03 µg/mL. For the same compound, the MIC (N. gonorrhoeae WHO L) was 0.06 µg/mL, the MIC [5] was 0.06 µg/mL and the MIC range [6] was 0.004 to 0.12 µg/mL. The MIC50 [6] was 0.06 µg/mL, the MIC90 [6] was 0.12 µg/mL and the MIC (S. pneumoniae ATCC 49619) was no more than 0.06 µg/mL. The MIC (S. aureus BAA-1720) was 0.016 µg/mL, the MIC (P. aeruginosa ATCC 27853) was 2 µg/mL and the MIC (E. coli ATCC 25922) was 0.5 µg/mL. The MIC (H. influenzae ATCC 49766) was 0.5 µg/mL, the MIC [7] was greater than 8 µg/mL and the MIC (E. faecalis ATCC 29212) was 0.25 µg/mL. For the same compound, the MIC (E. coli TolC- mutant) was no more than 0.016 µg/mL and the MIC [8] was no more than 0.016 µg/mL.
